Experiments:
HPAC = assay: MTT assay, pancreatic cancer cell line; type: cell-based, human; settings: Homo sapiens; HPAC (dFdC-sensitive); single agent; 72 h; read-out: IC50
colon cancer stem cells = assay: cell growth inhibition of colon cancer stem cells; type: cell-based, human; settings: Homo sapiens, 72 h
Method: (§1) Cells were treated with 1.25 μM of NSC-30049 and 1.25 μM of OPT either alone or in combination for 72 h. Data are mean±SD of triplicate experiments. […] Cells were treated with 1.25 μM of NSC-30049 and 1.25 μM of OPT either alone or in combination for 72 h. Fold change in gene expression values is shown as mean±SD of three experiments and are normalized to GAPDH gene expression.
(§2) The effect of administration of NSC-30049 in combination with oxaliplatin (OPT) was also examined in human parental cancer cells and colon cancer stem cells (FIG. 9A). Cells were treated with 1.25 μM of NSC-30049 and […] of OPT either alone or in combination for 72 h. Cell growth inhibition was assayed. Data presented are mean±SD of triplicate experiments.

[1] = tested on: human parental cancer cells; assay: cell growth inhibition of parental cancer cells; type: cell-based; settings: Homo sapiens, 72 h
Method: as §1, §2

[2] = 1.25 μM NSC-30049 in combination with 1.25 μM oxaliplatin

## ClCC=CC[N+]12CN3CN(CN(C3)C1)C2 [NSC-30049, 1-(4-Chloro-2-butenyl)-1λ˜5˜,3,5,7-tetraazatricyclo[3.3.1.1˜3,7˜]decane]
HPAC
  IC50: 4.44 ± 0.28 µM
Colon cancer stem cells; [2]
  inhibition at 1.25 µM: ~80%
Colon cancer stem cells; alone, 1.25 μM
  inhibition at 1.25 µM: ~10%
[1]; [2]
  inhibition at 1.25 µM: ~70%
[1]; alone, 1.25 μM
  inhibition at 1.25 µM: ~20%

— patent publication US9517244B2, “Therapeutic combinations for use in neoplasia” (University of Florida Research Foundation, Inc., priority 2011, dated 2016)
